# Assay results reported in the supplement of paper PMC13380429.
# How the values were obtained:
# Conditions in all cases: 72 h
# [1] = tested on: Caco-2; assay: cell viability relative to DMSO; higher = less toxic
# [2] = tested on: Calu-3; assay: as above
# [3] = tested on: HepG2; assay: as above
# [4] = tested on: U2OS; assay: as above
# [5] = tested on: Vero E6; assay: as above
# [6] = tested on: Caco-2; assay: relative viability EC50 (midpoint between 100% and the lowest measured viability); higher = less toxic
# [7] = tested on: Calu-3; assay: as above
# [8] = tested on: HepG2; assay: as above
# [9] = tested on: U2OS; assay: as above
# [10] = tested on: Vero E6; assay: as above
# [11] = tested on: Caco-2; assay: drug sensitivity score (DSS) for viability; higher = more toxic; extreme values may be limits of the assay
# [12] = tested on: Calu-3; assay: as above
# [13] = tested on: HepG2; assay: as above
# [14] = tested on: U2OS; assay: as above
# [15] = tested on: Vero E6; assay: as above
Structure (SMILES),cell viability ([1]; 1 nM) [%],cell viability ([1]; 10 nM) [%],cell viability ([1]; 100 nM) [%],cell viability ([1]; 1000 nM) [%],cell viability ([1]; 10000 nM) [%],cell viability ([2]; 1 nM) [%],cell viability ([2]; 10 nM) [%],cell viability ([2]; 100 nM) [%],cell viability ([2]; 1000 nM) [%],cell viability ([2]; 10000 nM) [%],cell viability ([3]; 1 nM) [%],cell viability ([3]; 10 nM) [%],cell viability ([3]; 100 nM) [%],cell viability ([3]; 1000 nM) [%],cell viability ([3]; 10000 nM) [%],cell viability ([4]; 1 nM) [%],cell viability ([4]; 10 nM) [%],cell viability ([4]; 100 nM) [%],cell viability ([4]; 1000 nM) [%],cell viability ([4]; 10000 nM) [%],cell viability ([5]; 1 nM) [%],cell viability ([5]; 10 nM) [%],cell viability ([5]; 100 nM) [%],cell viability ([5]; 1000 nM) [%],cell viability ([5]; 10000 nM) [%],relative viability EC50 [6] [µM],relative viability EC50 [7] [µM],relative viability EC50 [8] [µM],relative viability EC50 [9] [µM],relative viability EC50 [10] [µM],drug sensitivity score [11],drug sensitivity score [12],drug sensitivity score [13],drug sensitivity score [14],drug sensitivity score [15]
NC(=O)c1[nH]cnc1O [SM-108],91.2,101,102,104,97.9,96.2,89,101,107,99.8,95,93.9,95.8,102,98.7,100,95.7,104,96.6,104,102,108,99.7,103,100,> 10,> 10,> 10,> 10,> 10,0,0,0,0,0
O=S(=O)(c1ccccc1)N(CC(F)(F)F)c1ccc(C(O)(C(F)(F)F)C(F)(F)F)cc1,96,89.8,93.9,87.5,87.5,107,96.5,99.2,98.2,99.7,97.1,107,94.3,87.4,78.3,104,101,102,97.7,96.5,103,102,98.1,101,98.8,> 10,> 10,> 10,> 10,> 10,0.5,0,1.8,0,0
Cc1nc(C)c(C)nc1C [chuanxiongzine],110,105,95.7,112,105,105,106,89.9,101,84.8,105,88.9,97.1,92,97.3,98.5,102,98.6,101,95.7,104,97.1,104,104,105,> 10,> 10,> 10,> 10,> 10,0,0.2,0,0,0
Cc1cc(-c2cc(OC(=O)c3ccccc3)ccc2Cl)cc2nnc(Nc3ccc(OCCN4CCCC4)cc3)nc12,98.1,95.6,99,93,116,102,115,90.9,102,104,108,107,95.2,89,107,98.3,99,101,100,102,98.4,97.3,97.2,96.9,112,> 10,> 10,> 10,> 10,> 10,0,0,0,0,0
CC(=O)OCC(=O)[C@@]12OC3(CCCC3)O[C@@H]1C[C@H]1[C@@H]3CCC4=CC(=O)C=C[C@]4(C)[C@@]3(F)[C@@H](O)C[C@@]12C [amcinonide],104,105,94.6,107,104,101,103,93.9,89.3,97,108,97.1,98.2,91.8,99.8,101,101,92.6,97.2,91.5,102,96.2,99.6,95.6,95.4,> 10,> 10,> 10,> 10,> 10,0,0.3,0,0,0
CCCCCCCC/C=C\CCCCCCCC(=O)NCc1ccc(O)c(OC)c1 [olvanil],97.2,100,98,94.3,100,100,95,101,118,94.4,96.3,97.2,104,94.3,96.5,102,98.1,95.8,95.9,91,102,101,95.5,103,101,> 10,> 10,> 10,> 10,> 10,0,0,0,0,0
COc1cc(-n2c(=S)[nH]c3ccccc3c2=O)c(Cl)cc1Cl [mdivi-1],103,98.1,94.2,94.4,86.6,95.2,97.8,96.2,98.6,92.1,94.8,94.3,99.9,95.7,88.3,99.6,104,101,99.7,92.4,97.8,106,95.1,97.3,93,> 10,> 10,> 10,> 10,> 10,0.1,0,0,0,0
